Assay results reported in US8034839B2, “Method of treating ocular allergy” (Alcon Research, Ltd., priority 2005, dated 2011).
Marks after values point to notes of the source that are not given here.

What was measured:
[1] = tested on: conjunctival EPO activity; experiment: Mouse late-phase allergy model (OVA-induced allergic conjunctivitis), conjunctival EPO activity assay; format: in vivo, mouse (female BALB/c); conditions: for EPO Activity (ng/ml/mg tissue) ± S.D.: single 5 μl topical drop O.D. BID, conjunctival EPO activity at 24 hrs post-challenge, mean ± S.D.
Description: Active Sensitization and Induction of Allergic Conjunctivitis (AC)
Female BALB/c mice, 6 to 9 months old (Charles River Labs), were given a single intraperitoneal injection of 100 μg chicken ovalbumin (OVA; Sigma) which had been absorbed to 5 mg of alum (Pierce Chemical) as an adjuvant or 5 mg alum only (unsensitized group). On day 14 after sensitization, all mice were challenged with a single topical drop O.D. of 1 mg OVA dissolved in 5 μl PBS.
Drugs or vehicles were administered to mice as a single 5 μl drop O.D. at 60 min before challenge and again at 16 hrs after challenge (BID dosing). Mice were euthanized at 24 hrs after challenge.
Mice were euthanized at 24 hrs after topical challenge and upper and lower eyelids containing palpebral conjunctiva were excised and immediately frozen on dry ice. Samples were weighed frozen and then thawed and homogenized on ice in 2 ml of 50 mM HEPES buffer, pH 6.5. Samples were pelleted at 4000 rpm for 20 min at 4° C. and supernatants were discarded. To each pellet, 1 ml of 0.5% cetyltrimethylammonium chloride (CTAC) was added and samples were vortexed vigorously. Samples were then subjected to three freeze-thaw cycles between −80° C. and 37° C. After final thaw, samples were sonicated on ice for 15-30 sec and pelleted at 4000 rpm for 20 min at 4° C. EPO activity assay was performed on supernatants.
For the EPO activity assay, 75 μl of each sample were added in triplicate to wells of a 96-well clear flat-bottomed microplate. 75 μl of EPO substrate solution [6 mM o-phenylenediamine (OPD), 8.8 mM H2O2, and 6 mM KBr in 50 mM HEPES, pH 6.5] were then added to each well using a multichannel pipetter. The reaction was allowed to run for 3 min and was stopped by addition of 150 μl of 4M H2SO4. Optical density at 490 nm (OD490) was read on a Bio-Tek Synergy. HT plate reader. […] 75 μl triplicates of each standard were used on each run of the assay. Linear regression was determined for the resulting plot of [EPO] vs OD490. Final [EPO] in each sample was determined by solving for x in the equation y=m*x+b, where y=OD490, m=[…].
Groups of means were compared using Student's unpaired t-test or Dunnett's t-test where appropriate. […] Data are expressed as mean±standard deviation.

neutrophils = conditions: disclosed by Lee et al., Biochem. Biophys. Res. Commun. 1991; cited from earlier work

Structure (SMILES): COC(=O)CCC[C@H](O)[C@H](O)CO [compound 1]
- inhibition of conjunctival EPO activity (in words) ([1]; all three doses (0.001%, 0.01%, and 0.1% solutions), 24 hrs post-challenge, efficacy comparable to 0.1% dexamethasone): significantly inhibited
- EPO Activity (ng/ml/mg tissue) ± S.D. ([1]; dose 0.001%): 5.2 ± 2.5^c,d ng/ml/mg tissue
- EPO Activity (ng/ml/mg tissue) ± S.D. ([1]; dose 0.01%): 4.8 ± 1.2^c,d ng/ml/mg tissue
- EPO Activity (ng/ml/mg tissue) ± S.D. ([1]; dose 0.1%): 3.2 ± 1.0^c,d ng/ml/mg tissue
- inhibition of LTB4-induced chemotaxis of neutrophils (neutrophils): as potently as lipoxin A4

Structure (SMILES): CCCCC[C@H](O)[C@H](O)CO [compound 2]
- inhibition of LTB4-induced chemotaxis of neutrophils (neutrophils): as potently as lipoxin A4

Structure (SMILES): C[C@@H]1C[C@H]2[C@@H]3CCC4=CC(=O)C=C[C@]4(C)[C@@]3(F)[C@@H](O)C[C@]2(C)[C@@]1(O)C(=O)CO [dexamethasone, reference compound]
- EPO Activity (ng/ml/mg tissue) ± S.D. ([1]; dose 0.1%): 4.0 ± 0.5^c ng/ml/mg tissue

Structure (SMILES): CCCCC[C@H](O)/C=C/C=C\C=C\C=C\[C@@H](O)[C@@H](O)CCCC(=O)O [lipoxin A4, Lipoxin A4, reference compound]
- inhibition of LTB4-induced chemotaxis of neutrophils (neutrophils): inhibit
